Test results reported in PubChem BioAssay (NCI).
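Here, GI50 denotes the concentration required for 50% inhibition of growth. Definition used: TGI = concentration required for complete inhibition of growth.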

Tests used:
Assay in all cases: NCI tumour cell line growth inhibition, 384-well format
786-0 renal = test system: 786-0 renal
A498 renal = test system: A498 renal
A549 NSCLC = test system: A549 NSCLC
ACHN renal = test system: ACHN renal
BT-549 breast = test system: BT-549 breast
CAKI-1 renal = test system: CAKI-1 renal
CCRF-CEM leukemia = test system: CCRF-CEM leukemia
COLO 205 colon = test system: COLO 205 colon
DU-145 prostate = test system: DU-145 prostate
EKVX NSCLC = test system: EKVX NSCLC
HCC-2998 colon = test system: HCC-2998 colon
HCT-116 colon = test system: HCT-116 colon
HCT-15 colon = test system: HCT-15 colon
HL-60(TB) leukemia = test system: HL-60(TB) leukemia
HOP-62 NSCLC = test system: HOP-62 NSCLC
HOP-92 NSCLC = test system: HOP-92 NSCLC
HS 578T breast = test system: HS 578T breast
HT29 colon = test system: HT29 colon
IGROV1 ovarian = test system: IGROV1 ovarian
K-562 leukemia = test system: K-562 leukemia
KM12 colon = test system: KM12 colon
LOX IMVI melanoma = test system: LOX IMVI melanoma
M14 melanoma = test system: M14 melanoma
MALME-3M melanoma = test system: MALME-3M melanoma
MCF7 breast = test system: MCF7 breast
MDA-MB-231 breast = test system: MDA-MB-231 breast
MDA-MB-435 melanoma = test system: MDA-MB-435 melanoma
MDA-MB-468 breast = test system: MDA-MB-468 breast
MOLT-4 leukemia = test system: MOLT-4 leukemia
NCI-H226 lung = test system: NCI-H226 lung
NCI-H23 lung = test system: NCI-H23 lung
NCI-H322M lung = test system: NCI-H322M lung
NCI-H460 NSCLC = test system: NCI-H460 NSCLC
NCI-H522 lung = test system: NCI-H522 lung
NCI/ADR-RES ovarian = test system: NCI/ADR-RES ovarian
OVCAR-3 ovarian = test system: OVCAR-3 ovarian
OVCAR-4 ovarian = test system: OVCAR-4 ovarian
OVCAR-8 ovarian = test system: OVCAR-8 ovarian
PC-3 prostate = test system: PC-3 prostate
RPMI-8226 leukemia = test system: RPMI-8226 leukemia
RXF 393 renal = test system: RXF 393 renal
SF-268 CNS = test system: SF-268 CNS
SF-295 CNS = test system: SF-295 CNS
SF-539 CNS = test system: SF-539 CNS
SK-MEL-28 melanoma = test system: SK-MEL-28 melanoma
SK-MEL-5 melanoma = test system: SK-MEL-5 melanoma
SK-OV-3 ovarian = test system: SK-OV-3 ovarian
SN12C renal = test system: SN12C renal
SNB-19 CNS = test system: SNB-19 CNS
SNB-75 CNS = test system: SNB-75 CNS
SR leukemia = test system: SR leukemia
SW-620 colon = test system: SW-620 colon
T-47D breast = test system: T-47D breast
TK-10 renal = test system: TK-10 renal
U251 glioblastoma = test system: U251 glioblastoma
UACC-257 melanoma = test system: UACC-257 melanoma
UACC-62 melanoma = test system: UACC-62 melanoma
UO-31 renal = test system: UO-31 renal

C[C@@H]1COCCN1c1cc(C2([S@](C)(=N)=O)CC2)nc(-c2ccnc3[nH]ccc23)n1
GI50 ([…]-0 renal): 0.718 µM
TGI (786-0 renal): 4.25 µM
GI50 (A498 renal): 0.398 µM
TGI (A498 renal): 1.95 µM
GI50 (A549 NSCLC): 3.1 µM
TGI (A549 NSCLC): 21.2 µM
GI50 (ACHN renal): 0.826 µM
TGI (ACHN renal): 6.37 µM
GI50 (BT-549 breast): 0.573 µM
TGI (BT-549 breast): 3.51 µM
GI50 (CAKI-1 renal): 2.74 µM
TGI (CAKI-1 renal): 22.8 µM
GI50 (CCRF-CEM leukemia): 0.337 µM
TGI (CCRF-CEM leukemia): 1.4 µM
GI50 (COLO 205 colon): 7.72 µM
TGI (COLO 205 colon): 83.7 µM
GI50 (DU-145 prostate): 2.8 µM
TGI (DU-145 prostate): > 100 µM
GI50 (EKVX NSCLC): 6.53 µM
TGI (EKVX NSCLC): 59.9 µM
GI50 (HCC-2998 colon): 0.231 µM
TGI (HCC-2998 colon): 1.6 µM
GI50 (HCT-116 colon): 1.39 µM
TGI (HCT-116 colon): 14.6 µM
GI50 (HCT-15 colon): 1.9 µM
TGI (HCT-15 colon): 56.1 µM
GI50 (HL-60(TB) leukemia): 0.666 µM
TGI (HL-60(TB) leukemia): 1.91 µM
GI50 (HOP-62 NSCLC): 1.1 µM
TGI (HOP-62 NSCLC): 4.39 µM
GI50 (HOP-92 NSCLC): 1.16 µM
TGI (HOP-92 NSCLC): 6.77 µM
GI50 (HS 578T breast): 0.336 µM
TGI (HS 578T breast): 1.72 µM
GI50 (HT29 colon): 3.17 µM
TGI (HT29 colon): 9.92 µM
GI50 (IGROV1 ovarian): 1.87 µM
TGI (IGROV1 ovarian): 21.6 µM
GI50 (K-562 leukemia): 1.63 µM
TGI (K-562 leukemia): 3.7 µM
GI50 (KM12 colon): 0.734 µM
TGI (KM12 colon): 16.5 µM
GI50 (LOX IMVI melanoma): 2.34 µM
TGI (LOX IMVI melanoma): 12.6 µM
GI50 (M14 melanoma): 0.896 µM
TGI (M14 melanoma): 3.26 µM
GI50 (MALME-3M melanoma): 3.87 µM
TGI (MALME-3M melanoma): 18 µM
GI50 (MCF7 breast): 0.431 µM
TGI (MCF7 breast): > 100 µM
GI50 (MDA-MB-231 breast): 6.1 µM
TGI (MDA-MB-231 breast): > 100 µM
GI50 (MDA-MB-435 melanoma): 3.46 µM
TGI (MDA-MB-435 melanoma): > 100 µM
GI50 (MDA-MB-468 breast): 2.9 µM
TGI (MDA-MB-468 breast): 15.5 µM
GI50 (MOLT-4 leukemia): 0.342 µM
TGI (MOLT-4 leukemia): 1.52 µM
GI50 (NCI-H226 lung): 16.3 µM
TGI (NCI-H226 lung): 59.3 µM
GI50 (NCI-H23 lung): 0.792 µM
TGI (NCI-H23 lung): 2.4 µM
GI50 (NCI-H322M lung): 0.815 µM
TGI (NCI-H322M lung): 4.99 µM
GI50 (NCI-H460 NSCLC): 0.455 µM
TGI (NCI-H460 NSCLC): 8.99 µM
GI50 (NCI-H522 lung): 12.8 µM
TGI (NCI-H522 lung): 81.6 µM
GI50 (NCI/ADR-RES ovarian): 25.4 µM
TGI (NCI/ADR-RES ovarian): > 100 µM
GI50 (OVCAR-3 ovarian): 1.94 µM
TGI (OVCAR-3 ovarian): 23.8 µM
GI50 (OVCAR-4 ovarian): 2.03 µM
TGI (OVCAR-4 ovarian): 31 µM
GI50 (OVCAR-8 ovarian): 3.77 µM
TGI (OVCAR-8 ovarian): 16.3 µM
GI50 (PC-3 prostate): 6.97 µM
TGI (PC-3 prostate): > 100 µM
GI50 (RPMI-8226 leukemia): 0.694 µM
TGI (RPMI-8226 leukemia): 2.26 µM
GI50 (RXF 393 renal): 1.28 µM
TGI (RXF 393 renal): 3.93 µM
GI50 (SF-268 CNS): 3.35 µM
TGI (SF-268 CNS): 46.3 µM
GI50 (SF-295 CNS): 1.97 µM
TGI (SF-295 CNS): 7.74 µM
GI50 (SF-539 CNS): 0.64 µM
TGI (SF-539 CNS): 2.69 µM
GI50 (SK-MEL-28 melanoma): 18.3 µM
TGI (SK-MEL-28 melanoma): 81.8 µM
GI50 (SK-MEL-5 melanoma): 5.24 µM
TGI (SK-MEL-5 melanoma): 18.7 µM
GI50 (SK-OV-3 ovarian): 1.59 µM
TGI (SK-OV-3 ovarian): 10.5 µM
GI50 (SN12C renal): 4.38 µM
TGI (SN12C renal): 55.9 µM
GI50 (SNB-19 CNS): 4.39 µM
TGI (SNB-19 CNS): 43.4 µM
GI50 (SNB-75 CNS): 3.51 µM
TGI (SNB-75 CNS): > 100 µM
GI50 (SR leukemia): 0.0322 µM
TGI (SR leukemia): 0.125 µM
GI50 (SW-620 colon): 4.88 µM
TGI (SW-620 colon): > 100 µM
GI50 (T-47D breast): 18.7 µM
TGI (T-47D breast): > 100 µM
GI50 (TK-10 renal): 0.412 µM
TGI (TK-10 renal): 2.42 µM
GI50 (U251 glioblastoma): 3 µM
TGI (U251 glioblastoma): 41.8 µM
GI50 (UACC-257 melanoma): 22.4 µM
TGI (UACC-257 melanoma): > 100 µM
GI50 (UACC-62 melanoma): 2.43 µM
TGI (UACC-62 melanoma): 36.8 µM
GI50 (UO-31 renal): 2.82 µM
TGI (UO-31 renal): 25.5 µM
